Data published in patent publication US20260042764A1, “COMPOSITIONS AND METHODS FOR INHIBITION OF KRAS” (TheRas, Inc., priority 2022, published 2026).

What was measured:
[1] = test system: MKN1 cells (KRAS amplification); experiment: Cell-based pERK HTRF assay in MKN1 cells (Biological Example 5)
Description: (§1) Biological Example 5: Cell-based PERK HTRF assay in AsPC-1, SW1900, HPAC, Capan-2, RKN, H358, HCT116, KP-2, H1573, A549, MKN1, and HT1080 cells
(§2) The inhibition of ERK phosphorylation, as measured using the HTRF Advanced Phospho-ERK 1/2 (Thr202/Tyr204) Detection Assay kit (Perkin Elmer), was used to determine the effectiveness of test compounds in disrupting KRAS-driven protein/effector signaling in cells.
(§3) On day 1, cells were seeded into 96-well plates at 2.5×10^4 cells/well in 100 μL of complete growth media supplemented with 10% fetal bovine serum (FBS) and incubated at 37° C., in the presence of 5% CO2.
(§4) On day 2, cells were treated with compounds diluted in DMSO at 0.25% final DMSO concentration. Compounds were dosed in a 9-point concentration curve with three-fold dilution between concentrations. Cells were incubated in the presence of compound for two hours at 37° C. Following this treatment period, cells were harvested by aspirating the media, adding 40 μL of kit-supplied 1x lysis buffer per well, and shaking for 30 minutes at 250 rpm at room temperature.
(§5) Following cell lysis, samples were homogenized by pipetting up and down twenty times and 16 μL of cell lysate per well was transferred from the 96-well cell culture plate to two wells of a 384-well detection plate. A complete detection buffer was prepared by diluting D2 and Eu Cryptate antibodies 1:20 in kit-provided detection solution, 4 μL of complete detection buffer was then added to each well with lysate. Plates were incubated with gentle rocking for 24 hours at 4° C.
(§6) Following this incubation period, plates were centrifuged at 500×g for one minute and analyzed on a CLARIOstar plate reader. Data was imported into Microsoft Excel and the signal from the 665 nm channel was divided by the signal from the 620 nm channel. % pERK was calculated as: […]
(§7) Data was imported to the Prism software package (Graphpad) and EC50 values were calculated using the log (inhibitor) vs, response—variable slopc (Four parameters) model.

[2] = test system: AsPC-1 cells (KRAS G12D); experiment: Cell-based pERK HTRF assay in AsPC-1 cells (Biological Example 5)
Description: as §1, §2, §3, §4, §5, §6, §7

[3] = test system: HPAC cells (KRAS G12D); experiment: Cell-based pERK HTRF assay in HPAC cells (Biological Example 5)
Description: as §1, §2, §3, §4, §5, §6, §7

[4] = test system: SW1900 cells (KRAS G12D); experiment: Cell-based pERK HTRF assay in SW1900 cells (Biological Example 5)
Description: as §1, §2, §3, §4, §5, §6, §7

[5] = test system: H358 cells (KRAS G12C); experiment: 3D Cell viability assay in H358 cells (Biological Example 6); type: cell-based; details: H358 (KRAS G12C) spheroids, 72 hours
Description: (§8) Biological Example 6: 3D Cell viability assay in AsPC-1, SW1900, HPAC, Capan-2, RKN, H358, HCT116, KP-2, H1573, A549, MKN1, and HT1080 cells
(§9) The inhibition of cellular viability as a result of test compound treatment in a spheroid assay was measured using the CellTiter-Glow 3D Cell Viability Assay (Promega).
(§10) On Day 1, 1000 cells per well were seeded in 150 μL of complete growth media supplemented with 10% fetal bovine serum (FBS) and incubated at 37° C., in the presence of 5% CO2 in 96-well ultra-low attachment microplates (Corning) for 48 hours undisturbed to allow spheroids to form.
(§11) Following spheroid formation, cells were treated with compounds diluted in DMSO at 0.25% final DMSO concentration. Compounds were dosed in a 9-point concentration curve with three-fold dilution between concentrations. Cells were incubated in the presence of compound for 72 hours at 37° C., in the presence of 5% CO2.
(§12) Following this incubation period, the kit-provided CTG reagent was allowed to equilibrate for 30 minutes at room temperature, 150 μL of equilibrated CTG reagent was added to each well, and the plate was sealed before shaking at 250 rpm for 10 minutes at room temperature to lyse the cells, 150 μL of lysate per well was transferred to a 96-well plate and luminescence was read on a CLARIOstar plate reader.
(§13) Data was imported into the Prism software package (Graphpad) and EC50 values were calculated using the log (inhibitor) vs, response—variable slope (Four parameters) model.

[6] = test system: AsPC-1 cells (KRAS G12D); experiment: 3D Cell viability assay in AsPC-1 cells (Biological Example 6); type: cell-based; details: AsPC-1 (KRAS G12D) spheroids, 72 hours
Description: as §8, §9, §10, §11, §12, §13

[7] = test system: SW1900 cells (KRAS G12D); experiment: 3D Cell viability assay in SW1900 cells (Biological Example 6); type: cell-based; details: SW1990 (text: SW1900, KRAS G12D) spheroids, 72 hours
Description: as §8, §9, §10, §11, §12, §13

[8] = test system: HCT116 cells (KRAS G13D); experiment: 3D Cell viability assay in HCT116 cells (Biological Example 6); type: cell-based; details: Homo sapiens, HCT-116; HCT116 (KRAS G13D) spheroids, 72 hours
Description: as §8, §9, §10, §11, §12, §13

[9] = test system: Capan-2 cells (KRAS G12V); experiment: Cell-based pERK HTRF assay in Capan-2 cells (Biological Example 5)
Description: as §1, §2, §3, §4, §5, §6, §7

[10] = test system: HPAC cells (KRAS G12D); experiment: 3D Cell viability assay in HPAC cells (Biological Example 6); type: cell-based; details: HPAC (KRAS G12D) spheroids
Description: as §8, §9, §10, §11, §12, §13

[11] = test system: RKN cells (KRAS G12V); experiment: 3D Cell viability assay in RKN cells (Biological Example 6); type: cell-based; details: RKN (KRAS G12V) spheroids, 72 hours
Description: as §8, §9, §10, §11, §12, §13

[12] = test system: RKN cells (KRAS G12V); experiment: Cell-based pERK HTRF assay in RKN cells (Biological Example 5)
Description: as §1, §2, §3, §4, §5, §6, §7

[13] = test system: H358 cells (KRAS G12C); experiment: Cell-based pERK HTRF assay in H358 cells (Biological Example 5)
Description: as §1, §2, §3, §4, §5, §6, §7

[14] = test system: A549 cells (KRAS G12S); experiment: Cell-based pERK HTRF assay in A549 cells (Biological Example 5); details: Homo sapiens
Description: as §1, §2, §3, §4, §5, §6, §7

[15] = test system: HT1080 cells (NRAS); experiment: Cell-based pERK HTRF assay in HT1080 cells (Biological Example 5); details: Homo sapiens, HT-1080
Description: as §1, §2, §3, §4, §5, §6, §7

[16] = test system: H1573 cells (KRAS G12A); experiment: 3D Cell viability assay in H1573 cells (Biological Example 6); type: cell-based; details: Homo sapiens, NCI-H1573; H1573 (KRAS G12A) spheroids, 72 hours
Description: as §8, §9, §10, §11, §12, §13

[17] = test system: A549 cells (KRAS G12S); experiment: 3D Cell viability assay in A549 cells (Biological Example 6); type: cell-based; details: Homo sapiens; A549 (KRAS G12S) spheroids, 72 hours
Description: as §8, §9, §10, §11, §12, §13

[18] = test system: HCT116 cells (KRAS G13D); experiment: Cell-based pERK HTRF assay in HCT116 cells (Biological Example 5); details: Homo sapiens, HCT-116
Description: as §1, §2, §3, §4, §5, §6, §7

[19] = Homo sapiens, MKN-1, MKN cells (MKN1, KRAS amplification)
[20] = Homo sapiens, SW1990, SW1990 cells (text: SW1900, KRAS G12D)
[21] = Homo sapiens, Capan-2, Capan-2 (KRAS G12V) cells
[22] = Homo sapiens, NCI-H358, H358 (KRAS G12C) cells

| SMILES | IC50 [8] | IC50 [1, 19] | IC50 ([3]; Homo sapiens, HPAC) | IC50 [4, 20] | IC50 [14] | IC50 ([5]; Homo sapiens, NCI-H358) | IC50 [15] | IC50 ([7]; Homo sapiens) | IC50 [9, 21] | IC50 ([10]; Homo sapiens, HPAC, 72 h) | IC50 [13, 22] | IC50 [16] | IC50 [17] | IC50 [18] | further results |
| --- | --- | --- | --- | --- | --- | --- | --- | --- | --- | --- | --- | --- | --- | --- | --- |
| Cc1c(C(=O)N(C)C)nn2c1CN(c1nc(OC[C@@]34CCCN3C[C@H](F)C4)nc3c(F)c(-c4ccc(F)c5sc(N)c(C#N)c45)c(C(F)(F)F)cc13)CC2 (atropisomer, axis not shown; (aS)) [Compound 590, 5-((S)-7-(2-amino-3-cyano-7-fluorobenzo[b]thiophen-4-yl)-8-fluoro-2-(((2R,7aS)-2-fluorotetrahydro-1H-pyrrolizin-7a(5H)-yl)methoxy)-6-(trifluoromethyl)quinazolin-4-yl)-N,N,3-trimethyl-4,5,6,7-tetrahydropyrazolo[1,5-a]pyrazine-2-carboxamide] | 0.1 to 1 µM |  |  |  |  |  |  |  |  |  |  |  |  |  | IC50 ([1]; MKN cells (MKN1, KRAS amplification)): ≤ 0.1 µM; IC50 ([2]; AsPC-1 (KRAS G12D) cells): ≤ 0.1 µM; IC50 [3]: ≤ 0.1 µM; IC50 ([4]; SW1990 cells (text: SW1900, KRAS G12D)): ≤ 0.1 µM; IC50 [5]: ≤ 0.1 µM; IC50 [6]: ≤ 0.1 µM; IC50 [7]: ≤ 0.1 µM; IC50 ([9]; Capan-2 (KRAS G12V) cells): ≤ 0.1 µM; IC50 ([10]; 72 hours): ≤ 0.1 µM; IC50 [11]: ≤ 0.1 µM; IC50 [12]: ≤ 0.1 µM; IC50 ([13]; H358 (KRAS G12C) cells): ≤ 0.1 µM |
| CN(Cc1cccnc1N)c1nc(OC[C@@]23CCCN2C[C@H](F)C3)nc2c(F)c(-c3ccc(F)c4sc(N)c(C#N)c34)c(C(F)(F)F)cc12 [Compound 390] | 0.1 to 1 µM | ≤ 0.1 µM | ≤ 0.1 µM | ≤ 0.1 µM | ≤ 0.1 µM | ≤ 0.1 µM | > 1 µM | ≤ 0.1 µM | ≤ 0.1 µM | 0.1 to 1 µM | ≤ 0.1 µM |  |  |  | IC50 ([2]; Homo sapiens, ASPC1, AsPC-1 (KRAS G12D) cells): ≤ 0.1 µM; IC50 ([6]; Homo sapiens, ASPC1): ≤ 0.1 µM |
| N#Cc1c(N)sc2c(F)ccc(-c3c(C(F)(F)F)cc4c(N5CC6CC5CO6)nc(OC[C@@]56CCCN5C[C@H](F)C6)nc4c3F)c12 (some centres unmarked) [Compound 147] | 0.1 to 1 µM |  |  |  |  | ≤ 0.1 µM |  | 0.1 to 1 µM | ≤ 0.1 µM | 0.1 to 1 µM |  | ≤ 0.1 µM | ≤ 0.1 µM |  |  |
| CC(=O)N1CC[C@@H](N(C)c2nc(OC[C@@]34CCCN3C[C@H](F)C4)nc3c(F)c(-c4ccc(F)c5sc(N)c(C#N)c45)c(C(F)(F)F)cc23)[C@H]1C (single isomer, unassigned) [Compound 193] | ≤ 0.1 µM | ≤ 0.1 µM | ≤ 0.1 µM | ≤ 0.1 µM | ≤ 0.1 µM | ≤ 0.1 µM | > 1 µM |  | ≤ 0.1 µM | 0.1 to 1 µM | ≤ 0.1 µM | ≤ 0.1 µM | ≤ 0.1 µM | ≤ 0.1 µM |  |
| N#Cc1c(N)sc2c(F)ccc(-c3c(C(F)(F)F)cc4c(N5CCOCC5)nc(OC[C@@]56CCCN5C[C@H](F)C6)nc4c3F)c12 (single isomer, unassigned) [Compound 198] | ≤ 0.1 µM | ≤ 0.1 µM | 0.1 to 1 µM | ≤ 0.1 µM | 0.1 to 1 µM | ≤ 0.1 µM | > 1 µM |  | ≤ 0.1 µM | 0.1 to 1 µM | ≤ 0.1 µM | ≤ 0.1 µM | ≤ 0.1 µM | ≤ 0.1 µM |  |
